Experimental data reported in paper PMC11542830, “3-nitropyridine analogues as novel microtubule-targeting agents” (PLOS ONE, 2024).
Read-outs that look alike come from different tables or passages of the source.

Assays:
[1] = system: SR; assay: NCI60 5-dose screen, SR; assay type: cell-based; conditions: Homo sapiens, leukemia, Fig 1D, read-out: Log10 GI50 (SR) (converted)
Method: (§1) The screening methodology used in the NCI60 Cell 5-Doses screen is described in detail at https://dtp.cancer.gov/discovery_development/nci-60/methodology.htm. Briefly, cells are seeded in 96 well plates at an appropriate density and incubated for 1 day. After 1 day, some of the plates are processed to determine a time zero density. To the remaining plates, compounds are added over a 5-log M concentration range (1 log dilutions from 10^-4M to 10^-8M). Plates are incubated for two additional days, then fixed and stained with sulforhodamine B. Growth inhibition is calculated relative to cells without drug treatment and the time zero control. The GI50 is the concentration of a compound that causes 50% growth inhibition, relative to the no drug control.

[2] = system: MDA-MB-231/ATCC; assay: NCI60 5-dose screen, MDA-MB-231/ATCC; assay type: cell-based; conditions: Homo sapiens, breast cancer, Fig 1D, read-out: Log10 GI50 (MDA-MB-231/ATCC) (converted)
Method: as §1

[3] = system: primary cortical neurons; assay: Neurite outgrowth assay; assay type: cell-based, Sprague-Dawley rat; conditions: Primary cortical neuron, rat primary cortical neurons, 72 hours
Method: Neurite outgrowth assay was performed by Fluofarma (Pessac, France). Primary cortical neurons were harvested from E19 Sprague-Dawley (Janvier Labs) rat embryos, dissociated and plated at 10,000 per well in a tissue-culture treated 96 well plate, in neuronal medium (SM2 matrix independent growth medium, Stem Cell Technologies). Neurons were followed by phase contrast imaging with 1 image acquired every 4 hours, using an Incucyte Zoom (Essen BioScience) with a 20x objective. Four fields per well were acquired. After 24 hours, cells were treated with test compounds and neurite outgrowth was followed for 72 hours post-treatment. All measures were performed in triplicate in one experiment.
Neurite outgrowth kinetics were analyzed from each phase contrast image using the Neurotrack module of the Incucyte Zoom platform. Neurite length and branch points were obtained for each time point. The area under the curve (AUC) was calculated in each experimental condition (GraphPad Prism 6, GraphPad Software).

[4] = system: BC-1 cells; assay: 3-day MTS cell viability assay, BC-1; assay type: cell-based; conditions: Homo sapiens, BC1, 72 hours, Fig 1C
Method: (§2) All cancer cell lines (HT-29: colorectal adenocarcinoma, HCT-116: colorectal carcinoma, A549: lung epithelial carcinoma, PC3: prostate adenocarcinoma, Jurkat: acute T-cell leukemia, BC-1: primary effusion lymphoma) and the normal human embryonal lung fibroblast cell line MRC-5 were acquired from the American Type Culture Collection (ATCC). All cell lines were cultured as recommended by the suppliers. Culture media were purchased from Gibco (Thermo Fisher Scientific) and supplemented with 10 to 20% fetal bovine serum (HyClone, GE Healthcare Life Sciences) and 20–25 μg/mL gentamicin (Gibco, Thermo Fisher Scientific). […]
(§3) Cell viability in cancer cell lines treated with compound was measured in a 3-day MTS cell proliferation assay using the CellTiter 96 AQueous Non-Radioactive Cell Proliferation Assay reagent (Promega) according to the manufacturer’s instructions. Absorbance was read at 490 nm on a SaFire II microplate reader (Tecan). CC50 values were calculated by fitting the obtained MTS cell viability data in GraphPad Prism using a 4-parameter log–based fit for inhibitors. Apoptosis induction and cell death upon compound treatment in PBMC was measured using the Alexa Fluor 488 Annexin V/Dead Cell Apoptosis Kit (Thermo Fisher Scientific), with readout on a FACSCanto II flow cytometer (BD Biosciences). […] The compounds were evaluated in duplo in two independent experiments.

[5] = system: MOLT-4; assay: NCI60 5-dose screen, MOLT-4; assay type: cell-based; conditions: Homo sapiens, leukemia, Fig 1D, read-out: Log10 GI50 (MOLT-4) (converted)
Method: as §1

[6] = system: DU-145; assay: NCI60 5-dose screen, DU-145; assay type: cell-based; conditions: Homo sapiens, prostate cancer, Fig 1D, read-out: Log10 GI50 (DU-145) (converted)
Method: as §1

[7] = system: OVCAR-3; assay: NCI60 5-dose screen, OVCAR-3; assay type: cell-based; conditions: Homo sapiens, ovarian cancer, Fig 1D, read-out: Log10 GI50 (OVCAR-3) (converted)
Method: as §1

[8] = system: A498; assay: NCI60 5-dose screen, A498; assay type: cell-based; conditions: Homo sapiens, renal cancer, Fig 1D, read-out: Log10 GI50 (A498) (converted)
Method: as §1

[9] = system: PBMC; assay: Annexin V/PI flow cytometry viability, PBMC; assay type: cell-based; conditions: Homo sapiens, 72 hours, normal cells, Fig 1C
From the text: Buffy coat preparations from healthy donors were obtained from the Blood Transfusion Center in Leuven, Belgium. Peripheral blood mononuclear cells (PBMC) were isolated by density gradient centrifugation over Lymphoprep™ (Axis Shield PoC AS; density 1.077 ± 0.001 g/mL) and cultured in cell culture medium (DMEM/F12, Gibco Thermo Fisher Scientific) containing 8% fetal bovine serum. Each donor consented to the use of his blood for research purposes.
as §3, with “Biosciences). For cell cycle analysis, Jurkat cells were seeded at 400,000 cells per well in 12-well tissue culture plates and treated with the test compounds at the indicated concentrations for 24 h.” for “Biosciences).”

[10] = system: HCT-116 cells; assay: 3-day MTS cell viability assay, HCT-116; assay type: cell-based; conditions: Homo sapiens, 72 hours, Fig 1C
Method: as §2, §3

[11] = system: MDA-MB-435; assay: NCI60 5-dose screen, MDA-MB-435; assay type: cell-based; conditions: Homo sapiens, melanoma, Fig 1D, read-out: Log10 GI50 (MDA-MB-435) (converted)
Method: as §1

[12] = system: M14; assay: NCI60 5-dose screen, M14; assay type: cell-based; conditions: Homo sapiens, melanoma, Fig 1D, read-out: Log10 GI50 (M14) (converted)
Method: as §1

[13] = system: MCF7; assay: NCI60 5-dose screen, MCF7; assay type: cell-based; conditions: Homo sapiens, breast cancer, Fig 1D, read-out: Log10 GI50 (MCF7) (converted)
Method: as §1

[14] = system: NCI-60 Human Tumor Cell Lines; assay: NCI-60 Human Tumor Cell Lines Screen (whole panel); assay type: cell-based; conditions: NCI-60 panel; for GI50: Homo sapiens, mean across all cell lines
Method: as §1

[15] = system: SK-MEL-28; assay: NCI60 5-dose screen, SK-MEL-28; assay type: cell-based; conditions: Homo sapiens, melanoma, Fig 1D, read-out: Log10 GI50 (SK-MEL-28) (converted)
Method: as §1

[16] = read-out: IC50 for branch point formation
[17] = read-out: IC50 for neurite length
[18] = Fig 1D, read-out: mean GI50 (log10) (converted)
[19] = read-out: mean GI50 across the panel

Cc1cc(C)cc(Nc2ccc([N+](=O)[O-])c(NCCN3CCOCC3)n2)c1 [Compound 4AZA2891, 6-(3,5-dimethylanilino)-2-(2-morpholinoethylamino)-3-nitropyridine]
GI50 [1]: 17.4 nM | GI50 [2]: 34.7 nM | IC50 [3, 16]: 8 nM | IC50 [3, 17]: 10 nM | IC50 [4]: 8.5 nM | GI50 [5]: 56.2 nM | GI50 [6]: 41.7 nM | GI50 [7]: < 10 nM | GI50 [8]: < 10 nM | IC50 [9]: 76700 nM | IC50 [10]: 17.4 nM | GI50 [11]: < 10 nM | GI50 [12]: 12 nM | GI50 [13]: < 10 nM | GI50 [14, 18]: 35.5 nM | GI50 [14, 19]: 35.5 nM | GI50 [15]: 2750 nM

Cc1ccnc(Nc2ccc([N+](=O)[O-])c(NCCN3CCOCC3)n2)c1 [Compound 4AZA2996, N^6-(4-methylpyridin-2-yl)-N^2-(2-morpholinoethyl)-3-nitropyridine-2,6-diamine]
GI50 [1]: < 10 nM | GI50 [2]: 38 nM | IC50 [3, 16]: 7.4 nM | IC50 [3, 17]: 9.5 nM | IC50 [4]: 5.9 nM | GI50 [5]: 35.5 nM | GI50 [6]: 25.7 nM | GI50 [7]: < 10 nM | GI50 [8]: < 10 nM | IC50 [9]: 14100 nM | IC50 [10]: 10 nM | GI50 [11]: < 10 nM | GI50 [12]: < 10 nM | GI50 [13]: < 10 nM | GI50 [14, 18]: 21.9 nM | GI50 [14, 19]: 21.9 nM | number of cell lines with GI50 lower than 10 nM ([14]; out of the cell lines tested): 31 of the 50 | GI50 [15]: 12600 nM
